Measured values: patent US10597388B2, “Pyridazinone herbicides” (FMC CORPORATION, priority 2014, dated 2020)

Assays:
Type in all cases: in vivo
[1] = tested on: barnyardgrass (Echinochloa crus-galli); experiment: Test A greenhouse herbicide test, pre- and postemergence
In short: (§1)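 Seeds sown in loam–sand blend got a preemergence directed soil spray of compound in non-phytotoxic solvent with surfactant. Postemergence treatment was given at 2–10 cm, one- to two-leaf stage. After ~10 d in greenhouse, injury was rated visually vs untreated controls, 0 (no effect) to 100 (complete control).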

corn (Zea mays) = experiment: as above; conditions: Postemergence
In short: as §1

[2] = tested on: foxtail, giant (giant foxtail, Setaria faberii); experiment: as above
In short: as §1

kochia (Kochia scoparia) = experiment: as above
In short: as §1

[3] = tested on: pigweed (Amaranthus retroflexus); experiment: as above
In short: as §1

[4] = tested on: ragweed (common ragweed, Ambrosia elatior); experiment: as above
In short: as §1

[5] = tested on: ryegrass, Italian (Italian ryegrass, Lolium multiflorum); experiment: as above
In short: as §1

[6] = tested on: wheat (Triticum aestivum); experiment: as above; conditions: Postemergence
In short: as §1

[7] = tested on: blackgrass (Alopecurus myosuroides); experiment: Test A greenhouse herbicide test, postemergence
In short: (§2)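 Greenhouse postemergence test: formulated chemicals sprayed on one- to two-leaf plants (2 to 10 cm), grown in loam soil blended with sand. Injury assessed visually about 10 d later against untreated controls, scored 0 (no effect) to 100 (complete control).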

[8] = tested on: galium (catchweed bedstraw, Galium aparine); experiment: Test A greenhouse herbicide test, postemergence
In short: as §2

[9] = tested on: barnyardgrass (Echinochloa crus-galli); experiment: Test B flooded paddy test; conditions: 250 g ai/ha, Flood; visual rating on scale of 0 to 100 where 0 is no effect and 100 is complete control; 13 to 15 d after treatment
In short: (§3)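 Plants at the 2-leaf stage were flooded to 3 cm above soil, and test compounds were applied directly into the paddy water, which was held at that depth throughout. After 13 to 15 d in a greenhouse, injury was rated visually against untreated controls on a 0–100 scale (0 no effect, 100 complete control).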

[10] = tested on: ducksalad (Heteranthera limosa); experiment: Test B flooded paddy test; conditions: 250 g ai/ha, Flood; visual rating on scale of 0 to 100 where 0 is no effect and 100 is complete control; 13 to 15 d after treatment
In short: as §3

rice (Oryza sativa) = experiment: Test B flooded paddy test; conditions: 250 g ai/ha, Flood; visual rating on scale of 0 to 100 where 0 is no effect and 100 is complete control; 13 to 15 d after treatment
In short: as §3

[11] = tested on: sedge, umbrella (small-flower umbrella sedge, Cyperus difformis); experiment: Test B flooded paddy test; conditions: 250 g ai/ha, Flood; visual rating on scale of 0 to 100 where 0 is no effect and 100 is complete control; 13 to 15 d after treatment
In short: as §3

[12] = Postemergence, 125 g ai/ha, 0 to 100 scale, 0 no effect, 100 complete control
[13] = Postemergence, 500 g ai/ha, visual rating after approx. 10 d, 0 to 100 scale (0 no effect, 100 complete control)
[14] = Preemergence, 125 g ai/ha, visual injury rating, 0 to 100 scale (0 no effect, 100 complete control), approx. 10 d
[15] = Preemergence, 500 g ai/ha, 0 to 100 scale where 0 is no effect and 100 is complete control
[16] = 125 g ai/ha, 0 to 100 scale, 0 no effect, 100 complete control
[17] = 500 g ai/ha, visual rating after approx. 10 d, 0 to 100 scale (0 no effect, 100 complete control)
[18] = Preemergence, second run of lines under the 500 g ai/ha head, rate not given, 0 to 100 scale

Row | Structure (SMILES) | Plant response rating, Barnyardgrass [1, 12] | Plant response rating, Barnyardgrass [1, 13] | Plant response rating, Barnyardgrass [1, 15] | Plant response rating, Corn (corn (Zea mays); [16]) | Plant response rating, Corn (corn (Zea mays); [17]) | Plant response rating, Foxtail, Giant [2, 12] | Plant response rating, Foxtail, Giant [2, 13] | Plant response rating, Foxtail, Giant [2, 15] | Plant response rating, Kochia (kochia (Kochia scoparia); [12]) | Plant response rating, Kochia (kochia (Kochia scoparia); [13]) | Plant response rating, Kochia (kochia (Kochia scoparia); [15]) | Plant response rating, Pigweed [3, 12] | Plant response rating, Pigweed [3, 13] | Plant response rating, Pigweed [3, 15] | Plant response rating, Ragweed [4, 12] | Plant response rating, Ragweed [4, 13] | Plant response rating, Ragweed [4, 15] | Plant response rating, Ryegrass, Italian [5, 12] | Plant response rating, Ryegrass, Italian [5, 13] | Plant response rating, Ryegrass, Italian [5, 15] | further results
1 | Cc1nn(C)c(=O)c(-c2ccc(Cl)c3ccccc23)c1OS(=O)(=O)N(C)C [Compound 185] | 10 | 30 | 50 | 0 | 30 | 0 | 20 | 30 | 70 | 100 | 10 | 50 | 90 | 60 | 10 | 50 | 40 | 70 | 80 | 40 | Plant response rating, Barnyardgrass [1, 14]: 0; Plant response rating, Foxtail, Giant [2, 14]: 0; Plant response rating, Kochia (kochia (Kochia scoparia); [14]): 0; Plant response rating, Pigweed [3, 14]: 20; Plant response rating, Ragweed [4, 14]: 0; Plant response rating, Ryegrass, Italian [5, 14]: 0; Plant response rating, Wheat [6, 16]: 0; Plant response rating, Wheat [6, 17]: 0; Plant response rating, Blackgrass [7, 16]: 0; Plant response rating, Blackgrass [7, 17]: 20; Plant response rating, Galium [8, 16]: 70; Plant response rating, Galium [8, 17]: 90; Plant response rating, Barnyardgrass [9]: 0; Plant response rating, Ducksalad [10]: 0; Plant response rating, Rice (rice (Oryza sativa)): 0; Plant response rating, Sedge, Umbrella [11]: 0
2 | Cc1nn(C)c(=O)c(-c2ccc(Cl)c3ccccc23)c1OP(C)(C)=O [Compound 187] | 30 | 80 | 90 | 0 | 30 | 50 | 80 | 70 | 90 | 100 | 100 | 70 | 90 | 100 | 100 | 100 | 80 | 100 | 100 | 100 | Plant response rating, Barnyardgrass [1, 18]: 70; Plant response rating, Foxtail, Giant [2, 18]: 20; Plant response rating, Kochia (kochia (Kochia scoparia); [18]): 60; Plant response rating, Pigweed [3, 18]: 90; Plant response rating, Ragweed [4, 18]: 70; Plant response rating, Ryegrass, Italian [5, 18]: 100; Plant response rating, Wheat [6, 16]: 0; Plant response rating, Wheat [6, 17]: 30; Plant response rating, Blackgrass [7, 16]: 40; Plant response rating, Blackgrass [7, 17]: 70; Plant response rating, Galium [8, 16]: 90; Plant response rating, Galium [8, 17]: 100; Plant response rating, Barnyardgrass [9]: 0; Plant response rating, Ducksalad [10]: 0; Plant response rating, Rice (rice (Oryza sativa)): 20; Plant response rating, Sedge, Umbrella [11]: 0
3 | Cc1cc(C)c2sc(C)c(-c3c(OCC#N)c(C)nn(C)c3=O)c2c1 [Compound 188] | 10 | 20 | 30 | 0 | 0 | 20 | 80 | 90 | 10 | 20 | 20 | 50 | 80 | 90 | 20 | 50 | 30 | 20 | 80 | 80 | Plant response rating, Barnyardgrass [1, 18]: 10; Plant response rating, Foxtail, Giant [2, 18]: 10; Plant response rating, Kochia (kochia (Kochia scoparia); [18]): 20; Plant response rating, Pigweed [3, 18]: 60; Plant response rating, Ragweed [4, 18]: 10; Plant response rating, Ryegrass, Italian [5, 18]: 20; Plant response rating, Wheat [6, 16]: 0; Plant response rating, Wheat [6, 17]: 0; Plant response rating, Blackgrass [7, 16]: 10; Plant response rating, Blackgrass [7, 17]: 60; Plant response rating, Galium [8, 16]: 70; Plant response rating, Galium [8, 17]: 90; Plant response rating, Barnyardgrass [9]: 0; Plant response rating, Ducksalad [10]: 0; Plant response rating, Rice (rice (Oryza sativa)): 0; Plant response rating, Sedge, Umbrella [11]: 0
